Target: T1, Human AMPK α2ß2γ1 (Homo sapiens, UniProt O43741+P54646)
T1 construct: The full length cDNAs of human AMPK ß2 (NM_005399.3) and human AMPK α2 (NM_006252.3); The full length cDNAs of human AMPK ß2 (NM_005399.3); 6xHis (N); made in house; host or cells: Escherichia coli BL21 CodonPlus (DE3)-RIL
Experiment: Test Example 2: evaluation of an activator for AMP-activated protein kinase (AMPK), LabChip mobility shift assay with CaMKK2-phosphorylated enzyme
Type: biochemical
Conditions: for EC150 (compound concentration showing 150% relative to the control (100%)): FL-Peptide 7 substrate, 25° C., 2 hours; for Emax / Emax (maximum rate of increase in activity within the measurement range): relative to control (100%); for Emax: read-out: Emax (maximum rate of increase in activity within the measurement range)
Description: The full length cDNAs of human AMPK ß2 (NM_005399.3) and human AMPK α2 (NM_006252.3) were inserted into the MCS1 and MCS2 of the pETDuet-1 vector to prepare a human AMPK ß2 and human AMPK α2 (6× His tag at the 5′ terminus) expressing plasmid. The plasmid was cotransfected with an expression plasmid, in which the full length cDNA of human AMPK γ1 (NM_002733.3) had been inserted into pET28b(+), into BL21 CodonPlus (DE3)-RIL to obtain an expression strain. The expression strain was cultured in TB medium, followed by induction with 0.5 mM IPTG, and cultured at 25° C. for 3 hours and then harvested. After ultrasonication, supernatant was collected and applied to Histrap FF column (GE) and RESOURCE Q column (GE) to prepare 12.5 mg of purified sample containing three types of subunit from 1.8 L of broth.
Preparation method of human CaMKK2 used to impart activity to AMPK An expression vector, in which the full length cDNA of human CAMKK ß (NM_172226.1) had been inserted into pGEX-6P-3, was transfected into BL21 Star (DE3). The expression strain was cultured in TB medium, followed by induction with 0.5 mM IPTG, and cultured at 25° C. for 3 hours and then harvested. After ultrasonication, supernatant was collected and applied to GSTrap FF column (GE) to prepare 14 mg of GST-fused CAMKK ß from 720 ml of broth.
Thus, phosphorylation treatment was carried out as pretreatment.
Human AMPK α2ß2γ1 in an amount to give a conversion rate of approximately 10% by reaction for 2 hours, and CaMKK2 in an amount capable of sufficiently imparting activity to AMPK for one hour were mixed in a buffer solution consisting of a 50 mM HEPES-NaOH buffer solution (pH 7.0), 100 mM NaCl, 5 mM magnesium chloride, 0.1% bovine serum albumin, 0.2 mM sodium orthovanadate(V), 1 mM ethylene glycol-bis(2-aminoethyl ether)-N,N,N′,N′-tetraacetic acid (EGTA), 5 mM disodium ß-glycerophosphate, 1 mM dithiothreitol and 0.2 mM ATP, and the resulting liquid was left to stand at 25° C. for 1 to 1.5 hours to sufficiently phosphorylate AMPK.
After that, to the enzyme liquid, which had been subjected to phosphorylation treatment, a compound dissolved in DMSO was added so as to have a 1% DMSO concentration. The resulting liquid was left to stand for 10 minutes.
To the liquid, a substrate solution consisting of a 50 mM HEPES-NaOH buffer solution (pH 7.0), 100 mM NaCl, 10 mM magnesium chloride, 0.1% bovine serum albumin, 0.2 mM sodium orthovanadate(V), 1 mM ethylene glycol-bis(2-aminoethyl ether)-N,N,N′,N′-tetraacetic acid (EGTA), 5 mM disodium ß-glycerophosphate, 2 mM dithiothreitol, 0.4 mM ATP and 3 μM FL-Peptide 7 (manufactured by Caliper Life Sciences, Inc.) was added in equal amount (10 μl in total). The resulting liquid was allowed to react at 25° C. for 2 hours, and 10 μl of 20 mM EDTA was added thereto to stop the reaction.
To detect phosphorylated fluorescent substrates, the reaction mixture was applied to a measuring device, LabChip EZ Reader II manufactured by Caliper Life Science, Inc., for detecting fluorescence by using differences in mobility due to differences in charge. The setting conditions for the device were pressure, −1.5 PSI; upstream voltage, −2250 V; downstream voltage, −400 V; post sample buffer sip time, 40 seconds; final delay, 120 seconds; and peak order, Product First.
A conversion rate was calculated from the peak heights of the obtained substrate and product. The conversion rate when not containing a compound was used as a control, and a concentration dependent curve was made by plotting the rate of increase in activity to the control at each concentration of a compound.

T1 sequence (P54646 whole entry): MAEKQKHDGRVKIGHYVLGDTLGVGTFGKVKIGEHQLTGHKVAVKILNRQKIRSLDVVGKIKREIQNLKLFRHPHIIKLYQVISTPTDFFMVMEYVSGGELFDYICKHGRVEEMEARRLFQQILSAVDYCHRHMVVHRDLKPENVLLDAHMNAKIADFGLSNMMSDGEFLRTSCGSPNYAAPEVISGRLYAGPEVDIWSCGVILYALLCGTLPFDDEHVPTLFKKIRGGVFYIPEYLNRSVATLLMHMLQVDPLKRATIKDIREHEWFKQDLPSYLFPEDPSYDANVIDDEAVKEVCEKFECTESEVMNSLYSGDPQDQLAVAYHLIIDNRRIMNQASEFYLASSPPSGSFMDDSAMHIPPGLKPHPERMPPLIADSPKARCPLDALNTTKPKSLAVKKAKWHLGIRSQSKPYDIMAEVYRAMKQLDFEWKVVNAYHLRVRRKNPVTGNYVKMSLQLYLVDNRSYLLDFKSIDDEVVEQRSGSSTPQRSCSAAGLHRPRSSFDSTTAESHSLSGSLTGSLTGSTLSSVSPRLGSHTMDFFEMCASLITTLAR
T1 sequence (O43741 whole entry): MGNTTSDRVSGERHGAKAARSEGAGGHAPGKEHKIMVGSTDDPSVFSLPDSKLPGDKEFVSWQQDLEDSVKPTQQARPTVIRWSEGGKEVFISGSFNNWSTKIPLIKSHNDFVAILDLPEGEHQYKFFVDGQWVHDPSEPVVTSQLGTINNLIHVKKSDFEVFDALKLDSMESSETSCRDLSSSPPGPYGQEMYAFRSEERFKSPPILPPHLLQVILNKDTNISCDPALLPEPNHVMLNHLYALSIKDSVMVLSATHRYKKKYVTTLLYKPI
T1 sequence (P54619 whole entry partner): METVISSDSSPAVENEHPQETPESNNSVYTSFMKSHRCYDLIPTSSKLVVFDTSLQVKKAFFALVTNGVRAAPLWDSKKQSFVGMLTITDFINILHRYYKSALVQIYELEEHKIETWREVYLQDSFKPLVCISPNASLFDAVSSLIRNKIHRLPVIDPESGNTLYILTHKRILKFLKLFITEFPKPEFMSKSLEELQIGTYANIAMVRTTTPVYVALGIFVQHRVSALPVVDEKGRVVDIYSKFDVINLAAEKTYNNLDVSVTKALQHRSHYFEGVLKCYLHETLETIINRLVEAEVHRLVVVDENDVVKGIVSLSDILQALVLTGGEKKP

SMILES	EC150 (compound concentration showing 150% relative to the control (100%)) [nM]	Emax [%]	Emax (maximum rate of increase in activity within the measurement range) [%]
O[C@@H]1CO[C@H]2[C@@H]1OC[C@H]2Oc1nc2nc(NC3CCc4cc(OCC5(F)COC5)cc(F)c43)c(Cl)cc2[nH]1 (stereo partly shown) [Compound I-1-99]	4.6	422	
OCC/C=C/c1cc(F)c2c(c1)CCC2Nc1nc2nc(O[C@@H]3CO[C@H]4[C@@H]3OC[C@H]4O)[nH]c2cc1Cl (stereo partly shown) [Compound I-1-100]	3.5	441	
COCCOc1cc(F)c2c(c1)CCC2Nc1nc2nc(O[C@@H]3CO[C@H](CO)C3)[nH]c2cc1Cl (stereo partly shown) [Compound I-1-104]	2.3	423	
COCC(=O)Nc1cc(F)c2c(c1)CCC2Nc1nc2nc(O[C@@H]3CO[C@H]4[C@@H]3OC[C@H]4O)[nH]c2cc1Cl (stereo partly shown) [Compound I-1-105]	4.1	434	
Cn1cc(-c2cc(F)c3c(c2)CCC3Nc2nc3nc(O[C@@H]4CO[C@H]5[C@@H]4OC[C@H]5O)[nH]c3cc2Cl)ccc1=O (stereo partly shown) [Compound I-1-106]	1.4	462	
O[C@@H]1CO[C@H]2[C@@H]1OC[C@H]2Oc1nc2nc(NC3CCc4cc(-c5cnccn5)cc(F)c43)c(Cl)cc2[nH]1 (stereo partly shown) [Compound I-1-111]	4.5	424	
O[C@@H]1CO[C@H]2[C@@H]1OC[C@H]2Oc1nc2nc(N[C@H]3CCc4cc(O[C@H]5CC[C@@H](O)CC5)cc(F)c43)c(Cl)cc2[nH]1 [Compound I-2-01]	1.8	646	
COCC1CC1c1cc(F)c2c(c1)CC[C@@H]2Nc1nc2nc(O[C@@H]3CO[C@H]4[C@@H]3OC[C@H]4O)[nH]c2cc1Cl (stereo partly shown) [Compound I-2-02]	2.4	557	
O[C@@H]1CO[C@H]2[C@@H]1OC[C@H]2Oc1nc2nc(NC3CCc4cc(OCCOCC(F)(F)F)cc(F)c43)c(Cl)cc2[nH]1 (stereo partly shown) [Compound I-2-05]	6	680	
O[C@@H]1CO[C@H]2[C@@H]1OC[C@H]2Oc1nc2nc(NC3CCc4cc(OCCF)cc(F)c43)c(Cl)cc2[nH]1 (stereo partly shown) [Compound I-2-06]	3.6		707
CCOC/C=C/c1cc(F)c2c(c1)CC[C@@H]2Nc1nc2nc(O[C@@H]3CO[C@H]4[C@@H]3OC[C@H]4O)[nH]c2cc1Cl [Compound I-2-07]	2	727	
CS(C)(=O)=Nc1cc(F)c2c(c1)CC[C@@H]2Nc1nc2nc(O[C@@H]3CO[C@H]4[C@@H]3OC[C@H]4O)[nH]c2cc1Cl [Compound I-2-08]	3.5	688	
CC(C)(O)COc1cc(F)c2c(c1)CCC2Nc1nc2nc(O[C@@H]3CO[C@H]4[C@@H]3OC[C@H]4O)[nH]c2cc1Cl (stereo partly shown) [Compound I-2-09]	3.9	633	
N#Cc1cc(F)c2c(c1)CC[C@@H]2Nc1nc2nc(O[C@@H]3CO[C@H]4[C@@H]3OC[C@H]4O)[nH]c2cc1Cl [Compound I-2-10]	3.4	642	
O[C@@H]1CO[C@H]2[C@@H]1OC[C@H]2Oc1nc2cc(Cl)c(NC3CCc4cc(OCCOC(F)F)cc(F)c43)nc2[nH]1 (stereo partly shown) [Compound I-2-14]	5.6	594	
COCn1cc(-c2cc(F)c3c(c2)CC[C@@H]3Nc2nc3[nH]c(O[C@@H]4CO[C@H]5[C@@H]4OC[C@H]5O)nc3cc2Cl)cn1 [Compound I-2-17]	1.4	720	
O[C@@H]1CO[C@H]2[C@@H]1OC[C@H]2Oc1nc2nc(NC3CCc4cc(-c5ccoc5)cc(F)c43)c(Cl)cc2[nH]1 (stereo partly shown) [Compound I-2-21]	4.9	650	
Cn1nccc1-c1cc(F)c2c(c1)CCC2Nc1nc2nc(O[C@@H]3CO[C@H]4[C@@H]3OC[C@H]4O)[nH]c2cc1Cl (stereo partly shown) [Compound I-2-23]	12	709	
COc1ccc(-c2cc(F)c3c(c2)CCC3Nc2nc3nc(O[C@@H]4CO[C@H]5[C@@H]4OC[C@H]5O)[nH]c3cc2Cl)cn1 (stereo partly shown) [Compound I-2-26]	7.1		669
O=S(=O)(NCCOc1cc(F)c2c(c1)CCC2Nc1nc2nc(O[C@@H]3CO[C@H]4[C@@H]3OC[C@H]4O)[nH]c2cc1Cl)C(F)F (stereo partly shown) [Compound I-2-32]	9	714	
COCC(=O)NCCOc1cc(F)c2c(c1)CCC2Nc1nc2nc(O[C@@H]3CO[C@H]4[C@@H]3OC[C@H]4O)[nH]c2cc1Cl (stereo partly shown) [Compound I-2-33]	3	704	
O=C(NCCOc1cc(F)c2c(c1)CCC2Nc1nc2nc(O[C@@H]3CO[C@H]4[C@@H]3OC[C@H]4O)[nH]c2cc1Cl)C1CCC1 (stereo partly shown) [Compound I-2-34]	6.6	719	
CS(=O)(=O)NCCOc1cc(F)c2c(c1)CCC2Nc1nc2nc(O[C@@H]3CO[C@H]4[C@@H]3OC[C@@H]4F)[nH]c2cc1Cl (stereo partly shown) [Compound I-2-35]	10	679	
CC(C)OCCOc1cc(F)c2c(c1)CCC2Nc1nc2nc(O[C@@H]3CO[C@H]4[C@@H]3OC[C@H]4O)[nH]c2cc1Cl (stereo partly shown) [Compound I-2-36]	3.9	698	
CC(C)(O)/C=C/c1cc(F)c2c(c1)CCC2Nc1nc2nc(O[C@@H]3CO[C@H]4[C@@H]3OC[C@H]4O)[nH]c2cc1Cl (stereo partly shown) [Compound I-2-37]	3.2	645	
OC1CC=C(c2cc(F)c3c(c2)CCC3Nc2nc3nc(O[C@@H]4CO[C@H]5[C@@H]4OC[C@H]5O)[nH]c3cc2Cl)CC1 (stereo partly shown) [Compound I-2-38]	3.1	725	
